Experimental data reported in patent US11174242B2, “Heteroaryl compounds and their use” (Minoryx Therapeutics S.L., priority 2016, dated 2021).

Biological target: T1, β-glucocerebrosidase, p.L444P mutation (GM08760A fibroblasts) (Homo sapiens, UniProt P04062, L483P)
T1 construct: host or cells: human Gaucher patient fibroblasts GM08760A, homozygous L444P
T1 sequence (P04062 40-536 L483P): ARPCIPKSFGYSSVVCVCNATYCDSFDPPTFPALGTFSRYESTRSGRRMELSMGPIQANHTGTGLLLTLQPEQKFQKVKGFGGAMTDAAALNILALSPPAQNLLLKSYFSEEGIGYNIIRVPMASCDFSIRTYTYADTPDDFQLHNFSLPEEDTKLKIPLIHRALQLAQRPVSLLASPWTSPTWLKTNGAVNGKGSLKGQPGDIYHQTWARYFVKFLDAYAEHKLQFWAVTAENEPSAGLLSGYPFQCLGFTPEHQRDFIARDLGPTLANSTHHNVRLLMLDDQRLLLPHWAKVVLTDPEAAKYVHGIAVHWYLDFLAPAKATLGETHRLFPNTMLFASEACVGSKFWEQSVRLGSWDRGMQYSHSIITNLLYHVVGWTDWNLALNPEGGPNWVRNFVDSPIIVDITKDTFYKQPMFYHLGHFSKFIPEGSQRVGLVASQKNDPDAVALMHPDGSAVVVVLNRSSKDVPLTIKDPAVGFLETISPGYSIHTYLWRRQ
Experiment: Enhancement of β-glucocerebrosidase activity measured in Gaucher disease fibroblasts (L444P)
Type: cell-based
Conditions: increase in enzyme activity vs non-treated cells, GBA fibroblasts bearing L444P
Procedure: Enhancement of β-Glucocerebrosidase Activity Measured in Gaucher Disease Fibroblasts Materials
Human fibroblasts from a patient with Gaucher disease homozygous for p.L444P mutation (GM08760A) were purchased from Coriell Institute for Medical Research (Camden, N.J., USA).
Fibroblasts were seeded at 5×10^3 cells per well in 96-well cell culture plates (Corning, N.Y., USA) in Dulbecco's Modified Eagle's Media (DMEM) supplemented with 10% of fetal bovine serum (FBS), 1% penicillin/streptomycin (P/S) (Thermo Fisher Scientific, Waltham, Mass., USA) and grown at 37° C., 5% CO2 overnight for cell attachment. Subsequently, cells were incubated in the absence or presence of the compounds at the desired concentration for 4 days. After incubation, cells were washed twice with phosphate-buffered saline (PBS) and enzyme activity assay was performed.
β-glucocerebrosidase activity in intact cultured cells was measured by using 4-methylumbelliferyl-β-D-glucopyranoside substrate (Apollo Scientific, UK). Briefly, cells were incubated with 4-MU-β-D-glucopyranoside in 0.1 M acetate buffer pH=4 at 37° C. for 1 hour. […] The liberated 4-MU was measured on a GloMax Discover plate reader (Promega, Madison, Wis., USA) with and excitation at 340 nm and emission at 460 nm. Enzyme activities were expressed in treated cells as X-fold increase in comparison with non-treated cells (X=1 represents no enhancement).
The capacity of the compounds of the disclosure to produce an increase in enzyme activity in GBA fibroblasts bearing L444P at concentrations between 6 and 50 μM is denoted as follows:
The following compounds listed in Table 2 were purchased (from Enamine, Princeton, Asinex, Vistas-M, and OSSK_541352) and tested in the assay as described above.

[1] = concentrations between 6 and 50 μM, 4 days incubation
[2] = commercially available compounds, 6-50 μM, 4 days

## Cc1ccc(Nc2cc(CN(C)Cc3ccncc3)nc(N)n2)cc1 [Example 60, 6-((Methyl(pyridin-4-ylmethyl)amino)methyl)-N^4-p-tolylpyrimidine-2,4-diamine]
[1]
  Activity L444P: C (Increase in comparison with non-treated of 1.2-1.7 fold is shown as C)

## Cc1ccc(Nc2cc(N)nc(CN(C)Cc3ccccc3)n2)cc1 [Example 22, 2-((Benzyl(methyl)amino)methyl)-N^4-(p-tolyl)pyrimidine-4,6-diamine]
[1]
  Activity L444P: B (Increase in comparison with non-treated of >1.7-2.0 fold is shown as B)

## Cc1ccc(Nc2cc(CN(C)Cc3ccc(C#N)cc3)nc(N)n2)cc1 [Example 57, 4-((((2-Amino-6-(p-tolylamino)pyrimidin-4-yl)methyl)(methyl)amino)methyl)benzonitrile]
[1]
  Activity L444P: C (Increase in comparison with non-treated of 1.2-1.7 fold is shown as C)

## Cc1ccc(Nc2nc(N)cc(CN(C)Cc3ccccc3)n2)cc1 [Example 23, 6-((benzyl(methyl)amino)methyl)-N^2-p-tolylpyrimidine-2,4-diamine]
[1]
  Activity L444P: B (Increase in comparison with non-treated of >1.7-2.0 fold is shown as B)

## COc1ccccc1Nc1nc(N)cc(CN2CCc3ccccc3C2)n1 [Example 71, (6-((3,4-Dihydroisoquinolin-2(1H)-yl)methyl)-N-(2-methoxyphenyl)pyrimidine-2,4-diamine)]
[1]
  Activity L444P: C (Increase in comparison with non-treated of 1.2-1.7 fold is shown as C)

## Cc1ccc(Nc2nc(N)nc(CN(C)Cc3ccco3)n2)cc1 [6-(((furan-2-ylmethyl)(methyl)amino)methyl)-N2-(p-tolyl)-1,3,5-triazine-2,4-diamine]
[2]
  Activity L444P: C (Increase in comparison with non-treated of 1.2-1.7 fold is shown as C)

## Cc1ccc(Nc2cc(CN3CCc4ccccc4C3)nc(N)n2)cc1 [Example 35, 6-((3,4-Dihydroisoquinolin-2(1H)-yl)methyl)-N^4-p-tolylpyrimidine-2,4-diamine]
[1]
  Activity L444P: B (Increase in comparison with non-treated of >1.7-2.0 fold is shown as B)

## COc1ccccc1Nc1cc(N)nc(CN(C)Cc2ccccc2)n1 [Example 63, 2-((Benzyl(methyl)amino)methyl)-N^4-(2-methoxyphenyl)pyrimidine-4,6-diamine]
[1]
  Activity L444P: C (Increase in comparison with non-treated of 1.2-1.7 fold is shown as C)

## Nc1nc(CN(Cc2ccc(F)cc2)C2CC2)nc(Nc2ccc(F)cc2)n1 [6-((cyclopropyl(4-fluorobenzyl)amino)methyl)-N2-(4-fluorophenyl)-1,3,5-triazine-2,4-diamine]
[2]
  Activity L444P: C (Increase in comparison with non-treated of 1.2-1.7 fold is shown as C)

## COc1cccc(CN(C)Cc2cc(Nc3ccc(C)cc3)nc(N)n2)c1 [Example 53, 6-(((3-Methoxybenzyl)(methyl)amino)methyl)-N^4-p-tolylpyrimidine-2,4-diamine]
[1]
  Activity L444P: C (Increase in comparison with non-treated of 1.2-1.7 fold is shown as C)

## COc1cccc(Nc2cc(CN(C)Cc3ccccc3)nc(N)n2)c1 [Example 17]
[1]
  Activity L444P: B (Increase in comparison with non-treated of >1.7-2.0 fold is shown as B)

## Cc1ccc(CN(C)Cc2nc(N)nc(Nc3ccccc3C)n2)cc1 [6-((methyl(4-methylbenzyl)amino)methyl)-N2-(o-tolyl)-1,3,5-triazine-2,4-diamine]
[2]
  Activity L444P: C (Increase in comparison with non-treated of 1.2-1.7 fold is shown as C)

## CN(Cc1ccccc1)Cc1cc(Nc2ccc(Cl)cc2)nc(N)n1 [Example 21, 6-((benzyl(methyl)amino)methyl)-N^4-(4-chlorophenyl)pyrimidine-2,4-diamine]
[1]
  Activity L444P: B (Increase in comparison with non-treated of >1.7-2.0 fold is shown as B)

## COc1ccccc1Nc1nc(N)nc(CN(C)Cc2ccc3ccccc3c2)n1 [N2-(2-methoxyphenyl)-6-((methyl(naphthalen-2-ylmethyl)amino)methyl)-1,3,5-triazine-2,4-diamine]
[2]
  Activity L444P: B (Increase in comparison with non-treated of >1.7-2.0 fold is shown as B)

## Cc1ccc(Nc2cc(CN(C)Cc3cccnc3)nc(N)n2)cc1 [Example 61, 6-((Methyl(pyridin-3-ylmethyl)amino)methyl)-N^4-p-tolylpyrimidine-2,4-diamine]
[1]
  Activity L444P: C (Increase in comparison with non-treated of 1.2-1.7 fold is shown as C)

## Cc1ccc(Nc2nc(N)nc(CN3CCN(c4ccccc4)CC3)n2)cc1 [6-((4-phenylpiperazin-1-yl)methyl)-N2-(p-tolyl)-1,3,5-triazine-2,4-diamine]
[2]
  Activity L444P: C (Increase in comparison with non-treated of 1.2-1.7 fold is shown as C)

## COc1ccccc1Nc1cc(CN(C)Cc2ccccc2)nc(N)n1 [Example 15, 6-((benzyl(methyl)amino)methyl)-N^4-(2-methoxyphenyl)pyrimidine-2,4-diamine]
[1]
  Activity L444P: B (Increase in comparison with non-treated of >1.7-2.0 fold is shown as B)

## Cc1ccc(CN(C)Cc2cc(Nc3ccc(C)cc3)nc(N)n2)cc1 [Example 34, 6-((Methyl(4-methylbenzyl)amino)methyl)-N^4-p-tolylpyrimidine-2,4-diamine]
[1]
  Activity L444P: B (Increase in comparison with non-treated of >1.7-2.0 fold is shown as B)

## Cc1ccc(Nc2cc(CN(C)Cc3cccc(C#N)c3)nc(N)n2)cc1 [Example 55, 3-((((2-Amino-6-(p-tolylamino)pyrimidin-4-yl)methyl)(methyl)amino)methyl)benzonitrile]
[1]
  Activity L444P: B (Increase in comparison with non-treated of >1.7-2.0 fold is shown as B)

## CN(Cc1ccccc1)Cc1cc(Nc2cccc(C#N)c2)nc(N)n1 [Example 29, 3-(2-Amino-6-((benzyl(methyl)amino)methyl)pyrimidin-4-ylamino)benzonitrile]
[1]
  Activity L444P: B (Increase in comparison with non-treated of >1.7-2.0 fold is shown as B)

## CCc1ccc(CN(C)Cc2cc(Nc3cccc(OC)c3)nc(N)n2)cc1 [Example 40, 6-(((4-Ethylbenzyl)(methyl)amino)methyl)-N^4-(3-methoxyphenyl)pyrimidine-2,4-diamine]
[1]
  Activity L444P: B (Increase in comparison with non-treated of >1.7-2.0 fold is shown as B)

## Cc1ccccc1Nc1nc(N)nc(CN(C)c2ccccc2)n1 [6-((methyl(phenyl)amino)methyl)-N2-(o-tolyl)-1,3,5-triazine-2,4-diamine]
[2]
  Activity L444P: C (Increase in comparison with non-treated of 1.2-1.7 fold is shown as C)

## Cc1cccc(Nc2cc(CN(C)Cc3cccc(C#N)c3)nc(N)n2)c1 [Example 39, 3-((((2-Amino-6-(m-tolylamino)pyrimidin-4-yl)methyl)(methyl)amino)methyl) benzonitrile]
[1]
  Activity L444P: C (Increase in comparison with non-treated of 1.2-1.7 fold is shown as C)

## CN(Cc1cccc(F)c1)Cc1nc(N)nc(Nc2ccc(Cl)cc2)n1 [N2-(4-chlorophenyl)-6-(((3-fluorobenzyl)(methyl)amino)methyl)-1,3,5-triazine-2,4-diamine]
[2]
  Activity L444P: C (Increase in comparison with non-treated of 1.2-1.7 fold is shown as C)

## COc1ccc(Nc2nc(N)nc(CN(C)c3ccccc3)n2)cc1 [Example 2, N^2-(4-Methoxyphenyl)-6-((methyl(phenyl)amino)methyl)-1,3,5-triazine-2,4-diamine]
[1]
  Activity L444P: C (Increase in comparison with non-treated of 1.2-1.7 fold is shown as C)

## COCCN(Cc1ccccc1)Cc1cc(Nc2cccc(OC)c2)nc(N)n1 [Example 49, 6-((Benzyl(2-methoxyethyl)amino)methyl)-N^4-(3-methoxyphenyl)pyrimidine-2,4-diamine]
[1]
  Activity L444P: C (Increase in comparison with non-treated of 1.2-1.7 fold is shown as C)

## Nc1nc(CN2CCCC2c2ccccc2)nc(Nc2ccc(F)cc2)n1 (centres unmarked) [N2-(4-fluorophenyl)-6-((2-phenylpyrrolidin-1-yl)methyl)-1,3,5-triazine-2,4-diamine]
[2]
  Activity L444P: B (Increase in comparison with non-treated of >1.7-2.0 fold is shown as B)

## COc1cccc(Nc2cc(CN(C)Cc3cccc(C)c3)nc(N)n2)c1 [Example 38]
[1]
  Activity L444P: B (Increase in comparison with non-treated of >1.7-2.0 fold is shown as B)

## Cc1ccc(Nc2cc(CN(C)Cc3cccc(C)c3)nc(N)n2)cc1 [Example 32, 6-((Methyl(3-methylbenzyl)amino)methyl)-N^4-p-tolylpyrimidine-2,4-diamine]
[1]
  Activity L444P: C (Increase in comparison with non-treated of 1.2-1.7 fold is shown as C)
